Data taken from ChEMBL document CHEMBL1201862, “PubChem BioAssay data set” (2004).
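48-hour exposure; five concentrations; linearly interpolated endpoints. Here, GI50 denotes the concentration required for 50% inhibition of growth.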 Active and inactive are the calls of the source. Rule as the data show it: active = GI50 up to about 1.1 µM and inactive = higher.

Experiments:
Test in all cases: DTP human tumour cell line panel, 48 h
[1] = test system: CCRF-CEM
[2] = test system: HCT-15
[3] = test system: HT-29
[4] = test system: K562
[5] = test system: Malme-3M
[6] = test system: NCI-H23
[7] = test system: NCI-H460
[8] = test system: OVCAR-3
[9] = test system: RXF 393
[10] = test system: SF-268
[11] = test system: SF-539
[12] = test system: SK-MEL-28
[13] = test system: SK-OV-3
[14] = test system: SNB-75
[15] = test system: U-251
[16] = test system: UACC-257
[17] = test system: UACC-62
[18] = test system: A549
[19] = test system: IGROV-1
[20] = test system: SK-MEL-5

| Structure (SMILES) | GI50 [1] | GI50 [2] | GI50 [3] | GI50 [4] | GI50 [5] | GI50 [6] | GI50 [7] | GI50 [8] | GI50 [9] | GI50 [10] | GI50 [11] | GI50 [12] | GI50 [13] | GI50 [14] | GI50 [15] | GI50 [16] | GI50 [17] | GI50 [18] | GI50 [19] | GI50 [20] |
| --- | --- | --- | --- | --- | --- | --- | --- | --- | --- | --- | --- | --- | --- | --- | --- | --- | --- | --- | --- | --- |
| Cc1cccc(NC(N)=S)c1 | > 100 µM (inactive) | > 100 µM | > 100 µM (inactive) | > 100 µM (inactive) | > 100 µM (inactive) | > 100 µM (inactive) | > 100 µM (inactive) | > 100 µM (inactive) | > 100 µM (inactive) | > 100 µM (inactive) | > 100 µM (inactive) | > 100 µM (inactive) | > 100 µM (inactive) | > 100 µM (inactive) | > 100 µM (inactive) | > 100 µM (inactive) | > 100 µM (inactive) |  |  |  |
| C#CCNC(=O)CCC(N)C(=O)O (stereo unspecified) | > 100 µM (inactive) | > 100 µM | > 100 µM (inactive) | > 100 µM (inactive) | > 100 µM (inactive) | > 100 µM (inactive) | > 100 µM (inactive) | > 100 µM (inactive) | > 100 µM (inactive) | > 100 µM (inactive) | > 100 µM (inactive) | > 100 µM (inactive) | > 100 µM (inactive) | > 100 µM (inactive) | > 100 µM (inactive) | > 100 µM (inactive) | > 100 µM (inactive) | > 100 µM (inactive) | > 100 µM (inactive) | > 100 µM (inactive) |
| COc1c2c(c3ccccc3c1O)C1C=CC2C1 (stereo unspecified) | 4.72 µM (inactive) | 10 µM | 19.7 µM (inactive) | 3.85 µM (inactive) | 6.3 µM (inactive) | 14.6 µM (inactive) | 18.5 µM (inactive) | 14.5 µM (inactive) | 15.5 µM (inactive) | 17.7 µM (inactive) | 14.6 µM (inactive) | 23.3 µM (inactive) | > 10 µM (inactive) |  | 11.7 µM (inactive) |  | 15.4 µM (inactive) | 19.2 µM (inactive) | 20.8 µM (inactive) | 5.77 µM (inactive) |
| COC(=O)C1=C(C)N2CCSC2(C)C(C(=O)OC)C1c1cccc(Cl)c1 (stereo unspecified) | 23.1 µM (inactive) |  | 16.6 µM (inactive) | 17.5 µM (inactive) |  | 20.5 µM (inactive) | 18.8 µM (inactive) | 15.6 µM (inactive) | 21.9 µM (inactive) | 18.7 µM (inactive) | 11.5 µM (inactive) | 19.1 µM (inactive) |  | 10.2 µM (inactive) |  | 4.89 µM (inactive) | 12.8 µM (inactive) | 20.4 µM (inactive) | 20.8 µM (inactive) | 14.5 µM (inactive) |
| Oc1cc2cc(O)nc(O)c2c(O)n1 | > 100 µM (inactive) | > 100 µM | > 100 µM (inactive) | > 100 µM (inactive) | > 100 µM (inactive) | > 100 µM (inactive) | > 100 µM (inactive) | > 100 µM (inactive) | > 100 µM (inactive) | > 100 µM (inactive) | > 100 µM (inactive) |  | > 100 µM (inactive) | > 100 µM (inactive) | > 100 µM (inactive) | > 100 µM (inactive) | > 100 µM (inactive) | > 100 µM (inactive) | > 100 µM (inactive) | > 100 µM (inactive) |
| COP(=O)(OC)C(Cc1c[nH]c2ccccc12)NC(=O)OCc1ccccc1 (stereo unspecified) | 5.89 µM (inactive) | > 100 µM | > 100 µM (inactive) | > 100 µM (inactive) |  | > 100 µM (inactive) | > 100 µM (inactive) | 40.5 µM (inactive) |  |  |  | > 100 µM (inactive) | > 100 µM (inactive) | > 100 µM (inactive) | > 100 µM (inactive) | > 100 µM (inactive) |  | > 100 µM (inactive) | > 100 µM (inactive) | > 100 µM (inactive) |
| COc1cc(CNc2nc3c(NC(C)=O)cc(C(F)(F)F)cc3nc2-c2ccccc2)cc(OC)c1OC | > 100 µM (inactive) | > 100 µM |  | > 100 µM (inactive) | 19.6 µM (inactive) |  |  | > 100 µM (inactive) | 90.4 µM (inactive) | > 100 µM (inactive) | > 100 µM (inactive) | > 100 µM (inactive) | > 100 µM (inactive) |  |  |  | 39.7 µM (inactive) | > 100 µM (inactive) | > 100 µM (inactive) | > 100 µM (inactive) |
| Cc1cc(O)nc(NN2C(Cl)C(=O)C2c2ccco2)n1 (stereo unspecified) | 8.2 µM (inactive) | 31.6 µM | 34 µM (inactive) | 29.7 µM (inactive) |  | 28 µM (inactive) | 24.6 µM (inactive) | 15.2 µM (inactive) | 13 µM (inactive) | 29.4 µM (inactive) | 22.6 µM (inactive) | > 10 µM (inactive) |  | 13.7 µM (inactive) | 30.5 µM (inactive) | 48.9 µM (inactive) | 26.5 µM (inactive) | 77.6 µM (inactive) | 27 µM (inactive) | 41.7 µM (inactive) |
| CC1=Nc2nc(Cl)cn2C(=O)C1(Cl)Cl | > 10 µM (inactive) | > 10 µM | > 10 µM (inactive) | > 10 µM (inactive) | > 10 µM (inactive) | > 10 µM (inactive) | > 10 µM (inactive) | > 10 µM (inactive) | > 10 µM (inactive) | > 10 µM (inactive) | > 10 µM (inactive) | > 10 µM (inactive) | > 10 µM (inactive) | > 10 µM (inactive) | > 10 µM (inactive) |  | > 10 µM (inactive) | > 10 µM (inactive) | > 10 µM (inactive) | > 10 µM (inactive) |
| C/C(N)=N/OCc1nc(C)no1 | > 100 µM (inactive) | > 100 µM | > 100 µM (inactive) | > 100 µM (inactive) |  | > 100 µM (inactive) | > 100 µM (inactive) | > 100 µM (inactive) | > 100 µM (inactive) | > 100 µM (inactive) | > 100 µM (inactive) | > 100 µM (inactive) | > 100 µM (inactive) | > 100 µM (inactive) | > 100 µM (inactive) | > 100 µM (inactive) | > 100 µM (inactive) | > 100 µM (inactive) |  | > 100 µM (inactive) |
| COc1ccc([C@@H]2ON(C)[C@H]3CN(C)C(=O)[C@@H]23)cc1 | > 100 µM (inactive) | > 100 µM | > 100 µM (inactive) | > 100 µM (inactive) |  | > 100 µM (inactive) | > 100 µM (inactive) | > 100 µM (inactive) |  |  |  | > 100 µM (inactive) | > 100 µM (inactive) | 10.1 µM (inactive) | > 100 µM (inactive) | > 100 µM (inactive) |  | > 100 µM (inactive) | > 100 µM (inactive) | > 100 µM (inactive) |
| CC12CCC(C(=O)OC1=O)C(C)(C)O2 (stereo unspecified) | > 100 µM (inactive) |  | > 100 µM (inactive) | > 100 µM (inactive) | > 100 µM (inactive) | > 100 µM (inactive) | > 100 µM (inactive) | > 100 µM (inactive) | > 100 µM (inactive) | > 100 µM (inactive) | > 100 µM (inactive) | > 100 µM (inactive) | > 100 µM (inactive) | > 100 µM (inactive) | > 100 µM (inactive) | > 100 µM (inactive) | > 100 µM (inactive) | > 100 µM (inactive) | > 100 µM (inactive) | > 100 µM (inactive) |
| CC1CC2C3CCC4=CC(=O)C=CC4(C)C3(F)C(O)CC2(C)C1(O)C(=O)COP(=O)(O)O (stereo unspecified) | 0.144 µM (active) | > 100 µM | > 100 µM (inactive) | > 100 µM (inactive) | > 100 µM (inactive) | > 100 µM (inactive) | > 100 µM (inactive) | > 100 µM (inactive) | > 100 µM (inactive) | > 100 µM (inactive) | > 100 µM (inactive) | > 100 µM (inactive) |  | > 100 µM (inactive) | > 100 µM (inactive) | > 100 µM (inactive) | > 100 µM (inactive) | > 100 µM (inactive) | > 100 µM (inactive) | > 100 µM (inactive) |
| CC1[C@@]2(O[C@@H]3C=C4C5CCC6Cc7nc8c(nc7C[C@@]6(C)C5C[C@H](O)[C@@]4(C)[C@]13O)CC1CCc3c(cc4c5c3C(O)C[C@H]5[C@@H](C)C3(O4)OC(C)(C)CC3O)[C@]1(C)C8)O[C@@](C)(CO)C[C@@H]2O (stereo partly specified) | 0.164 µM (active) | 0.914 µM | 0.402 µM (active) | 0.259 µM (active) | 0.22 µM (active) |  | 0.126 µM (active) | 1.32 µM (inactive) | 0.0418 µM (active) | 0.191 µM (active) | 0.173 µM (active) |  | 0.187 µM (active) | 0.0182 µM (active) | 0.0759 µM (active) | 1.3 µM (inactive) | 0.169 µM (active) | 0.167 µM (active) | 0.345 µM (active) | 0.303 µM (active) |
| Oc1[nH]c(Nc2cccc(Br)c2)nc2ncnc1-2 | 54.7 µM (inactive) | > 100 µM | 82.6 µM (inactive) | 26.5 µM (inactive) | > 100 µM (inactive) | > 100 µM (inactive) | > 100 µM (inactive) | 89.5 µM (inactive) | > 100 µM (inactive) | 56.4 µM (inactive) |  | > 100 µM (inactive) | > 100 µM (inactive) | 57.7 µM (inactive) |  | > 100 µM (inactive) | > 100 µM (inactive) | > 100 µM (inactive) | > 100 µM (inactive) | > 100 µM (inactive) |
| Nc1ccn(C2OC(CO)C(O)C2O)c(=O)c1 (stereo unspecified) | > 625 µM (inactive) | > 625 µM | 270 µM (inactive) |  | 114 µM (inactive) | > 625 µM (inactive) | 38.7 µM (inactive) | > 625 µM (inactive) | 348 µM (inactive) | > 625 µM (inactive) | 186 µM (inactive) | > 625 µM (inactive) | > 625 µM (inactive) | 583 µM (inactive) | > 625 µM (inactive) |  | 337 µM (inactive) | 179 µM (inactive) | > 625 µM (inactive) | > 625 µM (inactive) |
